Data taken from patent US20060247261A1 (priority 2002, published 2006).
pEC50: −log10 of the molar value. Structures can show the parent of a compound that is named as a salt. Where two headings read alike, the source gives them in different places.

Target: T1, human cannabinoid CB2 receptor (Homo sapiens, UniProt P34972)
T1 construct: expressed in transfected cells; host or cells: Saccharomyces cerevisiae strain MMY23 (expresses a chimeric Gpa1/human Galpha-i3 G-protein alpha subunit)
Assay: Cannabinoid CB2 receptor agonist activity, yeast reporter assay
Assay type: cell-based
Details: for activity in the CB2 assay (in words): CB2 assay described herein; for Emax: read-out: efficacy (Emax) at the cloned human cannabinoid CB2 receptor
Description: Yeast (Saccharomyces cerevisiae) cells expressing the human cannabinoid CB2 receptor were generated by integration of an expression cassette into the ura3 chromosomal locus of yeast strain MMY23. This cassette consisted of DNA sequence encoding the human CB2 receptor flanked by the yeast GPD promoter to the 5′ end of CB2 and a yeast transcriptional terminator sequence to the 3′ end of CB2. MMY23 expresses a yeast/mammalian chimeric G-protein alpha subunit in which the C-terminal 5 amino acids of Gpa1 are replaced with the C-terminal 5 amino acids of human Gαi3 (as described in Brown et al. (2000), Yeast 16:11-22).
Agonists were prepared as 10 mM stocks in DMSO. […] Agonist solutions in DMSO (1% final assay volume) were transferred into black, clear bottom, microtitre plates from NUNC (96- or 384-well). […] Fluorescence was plotted against compound concentration and iteratively curve fitted using a four parameter fit to generate a concentration effect value.

[1] = yeast (Saccharomyces cerevisiae) cells expressing human CB2, read-out: EC50 at the cloned human cannabinoid CB2 receptor

T1 sequence (P34972 whole entry): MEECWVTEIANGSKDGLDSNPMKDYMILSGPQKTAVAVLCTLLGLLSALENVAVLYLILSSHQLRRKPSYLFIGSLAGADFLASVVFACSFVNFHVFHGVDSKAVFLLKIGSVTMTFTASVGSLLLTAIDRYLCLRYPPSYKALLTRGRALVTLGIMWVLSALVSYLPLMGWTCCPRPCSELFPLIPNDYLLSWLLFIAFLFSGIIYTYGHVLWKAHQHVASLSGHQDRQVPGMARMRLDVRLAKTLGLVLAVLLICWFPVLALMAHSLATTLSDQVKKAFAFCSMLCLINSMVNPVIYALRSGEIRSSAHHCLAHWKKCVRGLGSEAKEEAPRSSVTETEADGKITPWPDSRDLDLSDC

| activity in the CB2 assay (in words) | pEC50 [1] | SMILES | pEC50 | Emax [%] |
| --- | --- | --- | --- | --- |
| inactive | – | O=C(NCc1ccccc1Br)c1cnc(Nc2cccc(Cl)c2)nc1C(F)(F)F [2-(3-Chloro-phenylamino)-4-trifluoromethyl-pyrimidine-5-carboxylic acid 2-bromo-benzylamide] | – | – |
| inactive | – | COc1ccccc1CNC(=O)c1cnc(Nc2cccc(Cl)c2)nc1C(F)(F)F [2-(3-Chloro-phenylamino)-4-trifluoromethyl-pyrimidine-5-carboxylic acid 2-methoxy-benzylamide] | – | – |
| inactive | – | CN(Cc1ccccc1)C(=O)c1cnc(Nc2ccc(C(C)(C)C)cc2)nc1C(F)(F)F [2-(4-tert-butyl-phenylamino)-4-trifluoromethyl-pyrimidine-5-carboxylic acid benzyl-methyl-amide] | – | – |
| inactive | – | CC(C)(C)c1ccc(Nc2ncc(C(=O)NCc3ccccc3)c(C(F)(F)F)n2)cc1 [2-(4-tert-butyl-phenylamino)-4-trifluoromethyl-pyrimidine-5-carboxylic acid benzylamide] | – | – |
| – | – | O=C(NCc1ccccc1)c1cnc(Nc2cccc(Cl)c2)nc1C(F)(F)F [Example 1, 2-(3-Chlorophenylamino)-4-trifluoromethylpyrimidine-5-carboxylic acid benzyl-amide] | 6.00 to 7.70 | > 50 |
| – | – | O=C(NCc1ccncc1)c1cnc(Nc2cccc(Cl)c2)nc1C(F)(F)F [Example 2, 2-(3-Chlorophenylamino)-4-trifluoromethylpyrimidine-5-carboxylic acid (pyrdin-4-ylmethyl)amide] | 6.00 to 7.70 | > 50 |
| – | – | CN(Cc1ccccc1)C(=O)c1cnc(Nc2cccc(Cl)c2)nc1C(F)(F)F [Example 3, 2-(3-Chlorophenylamino)-4-trifluoromethylpyrimidine-5-carboxylic acid N-benzyl-N-methylamide] | 6.00 to 7.70 | > 50 |
| – | – | COc1ccc(CNC(=O)c2cnc(Nc3cccc(Cl)c3)nc2C(F)(F)F)cc1 [Example 4, 2-(3-Chlorophenylamino)-4-trifluoromethylpyrimidine-5-carboxylic acid 4-methoxybenzyl-amide] | 6.00 to 7.70 | > 50 |
| – | 6.00 to 7.70 | O=C(NCc1ccc(F)cc1)c1cnc(Nc2cccc(Cl)c2)nc1C(F)(F)F [Example 5, 2-(3-Chlorophenylamino)-4-trifluoromethylpyrimidine-5-carboxylic acid 4 fluorobenzyl-amide] | – | – |
| – | – | N#Cc1ccc(CNC(=O)c2cnc(Nc3cccc(Cl)c3)nc2C(F)(F)F)cc1 [Example 6, 2-(3-Chlorophenylamino)-4-trifluoromethylpyrimidine-5-carboxylic acid 4 cyanobenzyl-amide] | 6.00 to 7.70 | > 50 |
| – | – | CN(Cc1ccccc1)C(=O)c1cnc(Nc2cccc(Cl)c2Cl)nc1C(F)(F)F [Example 7, 2-(2,3-Dichlorophenylamino)-4-trifluoromethylpyrimidine-5-carboxylic acid N-benzyl-N-methylamide] | 6.00 to 7.70 | > 50 |
| – | – | O=C(NCc1ccccc1)c1cnc(Nc2ccc(Cl)cc2Cl)nc1C(F)(F)F [Example 8, 2-(2,4-Dichlorophenylamino)-4-trifluoromethyloyrimidine-5-carboxyllc acid benzyl-amide] | 6.00 to 7.70 | > 50 |
| – | – | O=C(NCc1ccccc1)c1cnc(Nc2ccc(Cl)c(Cl)c2)nc1C(F)(F)F [Example 9, 2-(3,4-Dichlorophenylamino)-4-trifluoromethylpyrimidine-5-carboxylic acid benzyl-amide] | 6.00 to 7.70 | > 50 |
| – | – | CN(Cc1ccccc1)C(=O)c1cnc(Nc2c(Cl)cccc2Cl)nc1C(F)(F)F [Example 10, 2-(2,6-Dichlorophenylamino)-4-trifluoromethylpyrimidine-5-carboxylic acid N-benzyl-N-methylamide] | 6.00 to 7.70 | > 50 |
| – | – | O=C(NCc1ccccc1)c1cnc(Nc2cc(Cl)cc(Cl)c2)nc1C(F)(F)F [Example 11, 2-(3,5-Dichlorophenylamino)trifluoromethylpyrimidine-5-carboxylic acid benzyl-amide] | 6.00 to 7.70 | > 50 |
| – | – | O=C(NCc1ccccc1)c1cnc(Nc2cccc(F)c2)nc1C(F)(F)F [Example 12, 2-(3-Fluorophenylamino)-4-trifluoromethylpyrimidine-5-carboxylic acid benzyl-amide] | 6.00 to 7.70 | > 50 |
| – | – | O=C(NCc1ccccc1)c1cnc(Nc2cccc(Br)c2)nc1C(F)(F)F [Example 13, 2-(3-Bromophenylamino)-4-trifluoromethylpyrimidine-5-carboxylic acid benzyl-amide] | 6.00 to 7.70 | > 50 |
| – | – | CN(Cc1ccccc1)C(=O)c1cnc(Nc2cccc(Br)c2)nc1C(F)(F)F [Example 14, 2-(3-Bromophenylamino)-4-trifluoromethylpyrimidine-5-carboxylic acid N-benzyl-N-methylamide] | 6.00 to 7.70 | > 50 |

| activity in the CB2 assay (in words) | pEC50 [1] | SMILES | pEC50 | Emax [%] |
| --- | --- | --- | --- | --- |
| – | – | COc1ccccc1Nc1ncc(C(=O)NCc2ccccc2)c(C(F)(F)F)n1 [Example 15, 2-(2-Methoxyphenylamino)-4-trifluoromethylpyrimidine-5-carboxylic acid benzyl-amide] | 6.00 to 7.70 | > 50 |
| – | – | O=C(NCc1ccncc1)c1cnc(Nc2cccc(Cl)c2Cl)nc1C(F)(F)F [Example 16] | 6.00 to 7.70 | > 50 |
| – | – | O=C(NCc1ccncc1)c1cnc(Nc2ccc(Cl)cc2Cl)nc1C(F)(F)F [Example 17, 2-(2,4-Dichlorophenylamino)-4-trifluoromethylpyrimidine-5-carboxylic acid (pyridin-4-ylmethyl)amide] | 6.00 to 7.70 | > 50 |
| – | – | O=C(NCc1ccncc1)c1cnc(Nc2ccc(Cl)c(Cl)c2)nc1C(F)(F)F [Example 18] | 6.00 to 7.70 | > 50 |
| – | – | O=C(NCc1ccncc1)c1cnc(Nc2cc(Cl)ccc2Cl)nc1C(F)(F)F [Example 19, 2-(2,5-Dichlorophenylamino)trifluoromethylpyrimidine-5-carboxylic acid (pyridin-4-ylmethyl)amide] | 6.00 to 7.70 | > 50 |
| – | – | O=C(NCc1ccncc1)c1cnc(Nc2cccc(F)c2)nc1C(F)(F)F [Example 20, 2-(3-Fluorophenylamino)-4-trifluoromethylpyrimidine-5-carboxylic acid (pyridin-4-ylmethyl)amide] | 6.00 to 7.70 | > 50 |
| – | – | O=C(NCc1ccncc1)c1cnc(Nc2cccc(Br)c2)nc1C(F)(F)F [Example 21, 2-(3-Bromophenylamino)-4-trifluoromethylpyrimidine-5-carboxylic acid (pyridin-4-ylmethyl)amide] | 6.00 to 7.70 | > 50 |
| – | – | O=C(NCc1ccncc1)c1cnc(Nc2cc(Cl)cc(Cl)c2)nc1C(F)(F)F [Example 22, 2-(3,5-Dichlorophenylamino)-4-trifluoromethylpyrimidine-5-carboxylic acid (pyridin-4-ylmethyl)amide] | 6.00 to 7.70 | > 50 |
| – | – | O=C(NCc1ccc(F)cc1)c1cnc(Nc2cccc(F)c2)nc1C(F)(F)F [Example 23, 2-(3-Fluorophenylamino)-4-trifluoromethylpyrimidine-5-carboxylic acid 4-fluorobenzyl-amide] | 6.00 to 7.70 | > 50 |
| – | 6.00 to 7.70 | O=C(NCc1ccc(F)cc1)c1cnc(Nc2cccc(Br)c2)nc1C(F)(F)F [Example 24] | – | – |
| – | – | O=C(NCc1ccc(F)cc1)c1cnc(Nc2cc(Cl)cc(Cl)c2)nc1C(F)(F)F [Example 25, 2-(3,5-Dichlorophenylamino)trifluoromethylpyrimidine-5-carboxylic acid 4-fluorobenzyl-amide] | 6.00 to 7.70 | > 50 |
| – | – | N#Cc1ccc(CNC(=O)c2cnc(Nc3cc(Cl)cc(Cl)c3)nc2C(F)(F)F)cc1 [Example 26, 2-(3,5-Dichlorophenylamino)-4-trifluoromethylpyrimidine-5-carboxylic acid 4-cyanobenzylamide] | 6.00 to 7.70 | > 50 |
| – | – | N#Cc1ccc(Nc2ncc(C(=O)NCc3ccccc3)c(C(F)(F)F)n2)cc1 [Example 27, 2-(4-Cyano-phenylamino)-4-trifluoromethyl-pyrimidine-5-carboxylic acid benzylamide] | 6.00 to 7.70 | > 50 |
| – | – | Cc1cc(CNC(=O)c2cnc(Nc3cccc(Cl)c3)nc2C(F)(F)F)ccn1 [Example 28, 2-(3-Chloro-phenylamino)-4-trifluoromethyl-pyrimidine-5-carboxylic acid (2-methyl-pyridin-4-ylmethyl)-amide hydrochloride] | 6.00 to 7.70 | > 50 |
| – | – | O=C(NCc1ccnc(F)c1)c1cnc(Nc2cccc(Cl)c2)nc1C(F)(F)F [Example 29, 2-(3-Chloro-phenylamino)-4-trifluoromethyl-pyrimidine-5-carboxylic acid (2-fluoro-pyridin-4-ylmethyl)-amide] | 6.00 to 7.70 | > 50 |
| – | – | O=C(NCc1ccccc1)c1cnc(Nc2ccccc2Cl)nc1C(F)(F)F [Example 43, 2-(2-Chloro-phenylamino)-4-trifluoromethyl-pyrimidine-5-carboxylic acid N-benzylamide] | < 6.00 | < 50 |
| – | – | O=C(NCc1ccccc1)c1cnc(Nc2ccc(Cl)cc2)nc1C(F)(F)F [Example 44, 2-(4-Chloro-phenylamino)4-trifluoromethyl-pyrimidine-5-carboxylic acid N-benzylamide] | < 6.00 | < 50 |
